Measurements from patent US12629406B2, “Alterations in endothelin receptors following hemorrhage and resuscitation by centhaquin” (MIDWESTERN UNIVERSITY, priority 2018, dated 2026).
Several values for one entry are separate records, joined by “and”; a condition that tells them apart may be missing. Identical values can stand only once.

Assays:
[1] = Rat hemorrhagic shock, hypertonic saline resuscitation: hematocrit, arterial blood gases, lactate, base deficit; assay type: in vivo
Method: Animals. Male Sprague-Dawley rats (340 to 380 g) (Envigo, Indianapolis, IN) were housed for at least 4 days in a room with controlled temperature (23±1° C.), humidity (50±10%) and light (6:00 A.M. to 6:00 P.M.) before being used. Food and water were made available continuously. Animal care and use for experimental procedures were approved by the Institutional Animal Care and Use Committee of the Midwestern University. All anesthetic and surgical procedures were in compliance with the guidelines established by the Animal Care Committee.
Determination of arterial blood gases and base deficit. Baseline arterial blood pH, Po2, Pco2, Na^+, K^+ and lactate were monitored prior to induction of shock, 30 minutes after induction of shock, and 30 and 60 minutes following vehicle or centhaquin resuscitation. Blood samples (0.15 ml) were drawn from the arterial cannula using blood gas sampling syringes (Innovative Medical Technologies, Inc. Leawood, K S) and analyzed using a pHOx Ultra analyzer (Nova Biomedical Corporation, Waltham, MA). The base deficit was calculated using the formula (Davis et al. 1998; Paladino et al. 2008): SBD=0.9287×[HCO3^−−24.4+14.83×(pH-7.4)]
(§1) Induction of Hemorrhagic Shock. Hemorrhage was induced by withdrawing blood from the femoral artery at a rate of approximately 0.5 to 1 mL/min until a MAP of 35 mmHg was reached. This MAP was maintained for 30 min by further withdrawal of blood, if necessary. The hemorrhagic shock model used in the present study is a well-established rodent model of manageable pressure hemorrhage (Buehler et al. 2000; Gulati et al. 1997a; Gulati and Sen 1998). The volume of blood loss was about approximately 8.0 ml in each rat and was similar in various groups, amounting to approximately 40% of the total blood. Measured hematocrit levels were similar in various groups. The duration of blood withdrawal was approximately 15 minutes.
(§2) Experimental design. To determine the resuscitative effect of centhaquin on cardiovascular system and plasma cytokines in hemorrhagic shock, rats were randomly divided into five groups, Group 1: Sham control (Non-hemorrhaged) (n=5), Group 2: Hemorrhage with no resuscitation (n=5); Group 3: Hemorrhage followed by resuscitation with 3% hypertonic saline (vehicle) (n=5); Group 4: Hemorrhage followed by resuscitation with vehicle plus centhaquin (0.017 mg/kg) (n=5); and Group 5: Hemorrhage followed by resuscitation with vehicle plus centhaquin (0.05 mg/kg) (n=5). Resuscitation was started 30 min after induction of hemorrhagic shock as an intravenous infusion (1 mL/min) through femoral vein using an infusion pump (Harvard Apparatus Infusion/Withdrawal Pump, Millis, MA). The blood samples, for biochemical estimations, were collected at 30 minutes of resuscitation and cardiovascular parameters were monitored till 60 minutes after which the animal was sacrificed. The volume of resuscitative solution was kept equal to the volume of blood loss.

ETA receptors = test: ETA receptor expression in tissues of hemorrhaged rats (western blot); assay type: in vivo, rat; conditions: for change in ETA receptor expression, abdominal aorta: compared to hemorrhaged rats with no treatment; for change in ETA receptor expression, renal medulla: compared to hemorrhagic shock
Method: as §1, §2
Estimation of ETA and ETB receptor expression. Expression of ETA and ETB receptors was determined using the western blotting technique (Briyal et al. 2015; Leonard and Gulati 2013) with some modifications. After completion of cardiovascular experiments animals were sacrificed and the organs (brain, heart, liver, lung, kidney and abdominal aorta) were immediately dissected out, flash frozen on dry ice, and stored at −80° C. for further analysis. The tissue was homogenized with 10×(w/v) RIPA lysis buffer (20 mM Tris-HCl pH 7.5, 120 mM NaCl, 1.0% TritonX-100, 1.0% sodium deoxycholate, 0.1% sodium dodecyl sulfate (SDS), 10% glycerol, 1 mM disodium ethylene diamine tetraacetic acid (EDTA), 1 mM ethylene glycol-bis(β-aminoethyl ether)-N,N,N′,N′-tetraacetic acid tetrasodium salt (EGTA), phosphatase inhibitors and Complete Mini Protease inhibitor cocktail tablet (Roche Diagnostics, Indianapolis, IN). Proteins were isolated in solubilized form and concentrations were measured by Folin-Ciocalteu's phenol reagent (Lowry et al. 1951). Solubilized protein (60 μg) was denatured in Laemmli sample buffer (Bio-Rad Laboratories, Hercules, CA), resolved on 10% sodium dodecyl sulfate-polyacrylamide gel electrophoresis (SDS-PAGE) and then transferred onto the nitrocellulose membrane followed by blocking the membrane with SuperBlock® Blocking Buffer in tris-buffered saline (TBS) (ThermoFisher Scientific, Hanover Park, IL). The membranes were washed three times with 1×TBS-Tween (TBST) and incubated with rabbit polyclonal anti-ETA receptor (ab85163, Abcam, Cambridge, MA, 1:1000) or anti-ETB receptor (ab117529, Abcam, Cambridge, MA, 1:1000) or mouse monoclonal anti-β-actin (a1978, Sigma-Aldrich, St. Louis, MO) antibodies, followed by horseradish peroxidase (HRP)-conjugated secondary antibodies goat anti-rabbit (sc2004, Santa Cruz Biotechnology, Dallas, TX, 1:2000) or goat anti-mouse (ab98693, Abcam, Cambridge, MA, 1:10,000) and visualized by SuperSignal® West Pico Chemiluminescent Substrate (ThermoFisher Scientific, Hanover Park, IL) using the ChemiDoc™ MP Imaging System (Bio-Rad Laboratories, Hercules, CA) and then analyzed using ImageJ (NIH) software.

[2] = in vivo; cited from earlier work
[3] = 60 min after resuscitation, centhaquin 0.017 mg/kg in 3% saline
[4] = 60 min after resuscitation, centhaquin 0.05 mg/kg in 3% saline
[5] = Baseline, before hemorrhage, centhaquin 0.017 mg/kg group
[6] = Baseline, before hemorrhage, centhaquin 0.05 mg/kg group
[7] = H. Shock, before resuscitation, centhaquin 0.017 mg/kg group
[8] = H. Shock, before resuscitation, centhaquin 0.05 mg/kg group
[9] = centhaquin 0.017 and 0.05 mg/kg

Cc1cccc(N2CCN(CCc3ccc4ccccc4n3)CC2)c1 [centhaquin, 2-[2-(4-(3-methyphenyl)-1-piperazinyl)]ethyl-quinoline]
Base-deficit [1, 3]: −12.0±0.2 mEq/L and −12.0 ± 0.2^#Δ mEq/L
Hematocrit [1, 3]: 21.5 ± 1.8%
Lactate [1, 3]: 1.9 ± 0.1^#Δ mmol/L
PCO2 [1, 3]: 26.0 ± 1.6 mmHg
arterial blood pH [1, 3]: 7.24 ± 0.02^Δ
pO2 [1, 3]: 131.3 ± 5.4 mmHg
Base-deficit [1, 4]: −11.6±0.5 mEq/L and −11.6 ± 0.5^#Δ mEq/L
Hematocrit [1, 4]: 21.3 ± 1.3%
Lactate [1, 4]: 1.7 ± 0.2^#Δ mmol/L
PCO2 [1, 4]: 27.3 ± 1.9 mmHg
arterial blood pH [1, 4]: 7.28 ± 0.01^Δ
pO2 [1, 4]: 121.3 ± 4.6 mmHg
Base-deficit [1, 5]: −2.9 ± 0.3 mEq/L
Hematocrit [1, 5]: 36.8 ± 1.3%
Lactate [1, 5]: 1.5 ± 0.2 mmol/L
PCO2 [1, 5]: 33.8 ± 1.2 mmHg
arterial blood pH [1, 5]: 7.38 ± 0.01
pO2 [1, 5]: 125.5 ± 1.9 mmHg
Base-deficit [1, 6]: −2.8 ± 0.3 mEq/L
Hematocrit [1, 6]: 39.3 ± 1.6%
Lactate [1, 6]: 1.8 ± 0.1 mmol/L
PCO2 [1, 6]: 34.5 ± 2.1 mmHg
arterial blood pH [1, 6]: 7.38 ± 0.01
pO2 [1, 6]: 120.2 ± 1.2 mmHg
Base-deficit [1, 7]: −15.3 ± 0.4 mEq/L
Hematocrit [1, 7]: 24.8 ± 1.5 %
Lactate [1, 7]: 7.6 ± 0.3 mmol/L
PCO2 [1, 7]: 15.9 ± 0.9 mmHg
arterial blood pH [1, 7]: 7.23 ± 0.02
pO2 [1, 7]: 145.6 ± 1.9 mmHg
Base-deficit [1, 8]: −15.4 ± 0.9 mEq/L
Hematocrit [1, 8]: 22.2 ± 0.7 %
Lactate [1, 8]: 7.4 ± 0.4 mmol/L
PCO2 [1, 8]: 16.3 ± 1.5 mmHg
arterial blood pH [1, 8]: 7.25 ± 0.03
pO2 [1, 8]: 142.8 ± 1.8 mmHg
change in hematocrit after treatment [1, 9]: no change
effect on blood pH of hemorrhaged rats [1, 9]: significantly prevented the reduction of pH
blood lactate levels compared to the hypertonic saline group ([1]; centhaquin 0.017 and 0.05 mg/kg, p<0.001): significant decrease
effect on hemorrhage-induced decrease in pCO2 and increase in pO2 ([1]; resuscitation with centhaquin): not affected
change in ETA receptor expression, abdominal aorta (ETA receptors; centhaquin 0.017 mg/kg): −47.6%
change in ETA receptor expression, renal medulla (ETA receptors; centhaquin 0.017 mg/kg): −61.3%
change in ETA receptor expression, abdominal aorta (ETA receptors; centhaquin 0.05 mg/kg): −49.2%
change in ETA receptor expression, renal medulla (ETA receptors; centhaquin 0.05 mg/kg): −70.5%
change in ETA expression, renal medulla (summary) (ETA receptors; dose not given): −61%
ETA receptor expression in brain, heart, liver, lungs and kidney cortex (ETA receptors; hemorrhage and resuscitation): no change
shock-induced increase (140%) in ETA expression, abdominal aorta (ETA receptors; summary, also attenuated by saline): attenuated
half-life [2]: about one
volume of distribution [2]: high
